Experimental data published in paper PMC4184702 (Pharmacology Research & Perspectives, 2014).
Entries after “also recorded” stand apart in the source; their conditions may differ. Where two headings read alike, the source gives them in different places.

Legend:
α4β2* nAChR = settings: Figure 1, cited from earlier work
α3β4* nAChR = biological target: α3β4* nAChR; parameters: method as in Mineur et al. ([2009]); settings: Figure 1; ref Mineur et al. ([2009]); cited from earlier work
α7* nAChR = settings: Figure 1, cited from earlier work
LS and HS α4β2-nAChR = test system: LS and HS α4β2-nAChR; parameters: method as in Mineur et al. [2009]; settings: relative to that of ACh; ref Mineur et al. [2009]; cited from earlier work
C57BL/6J mice = settings: ref Mineur et al. [2009], cited from earlier work; for latency to eat in NSF: 14 days repeat treatment, C57BL/6J mice, [2011]
Male C57 BL6 mice = assay: SmartCube test; type: in vivo, mouse; settings: for SmartCube behavioral signature: both tested doses, 15 min preinjection
Method: Male C57 BL6 mice (Taconic Farms) were used in the SmartCube® assay (PsychoGenics Inc., Tarrytown, NY). Mice were received at 7 weeks old and group-housed in OptiMICE ventilated cages with four mice/cage. Mice were acclimated to the colony room for at least 1 week prior to the first injections. All animals were tested in SmartCube® at 8 10 weeks old.
To acquire initial in vivo evaluation of our nicotinic ligands for behavioral effects relevant to psychiatric diseases, we used SmartCube®, an automated system in which mouse behavior is captured by digital video using novel, proprietary hardware that presents multiple challenges in a single test session and is analyzed with computer algorithms. Digital videos of the subjects are processed with computer vision algorithms to extract more than 1400 dependent measures including frequency and duration of behavioral states such as grooming, rearing, etc., and many other features obtained during the test session. Using machine learning techniques chosen to best separate pharmacological effects of reference compounds, the behavioral signatures of the mutant mice are then assessed quantitatively.
The most dominant of the features collected that define the drug class signature are identified and ranked using complex proprietary bioinformatics algorithms. The outcome of a SmartCube® run is a set of more than 1400 features (behavioral parameters) that can be used for various analyses. Many of these features are correlated (e.g., rearing counts and supported rearing counts). Therefore, we form statistically independent combinations of the original features (further referred to as decorrelated features) that discriminate between the groups more effectively. Next, we apply a proprietary feature ranking algorithm to score each feature discrimination power to weight each feature change by its relevance. The data obtained in this way are used to define drug signatures for known reference compounds and to establish therapeutic class signatures against which a test sample can be compared. The neuropharmacological effects of a test compound can be predicted by similarity to major classes of compounds, such as antipsychotics, anxiolytics, and antidepressants (Roberds et al. [2011]).
Mice are taken in their home cage to the SmartCube® suite of experimental rooms where they remain until they are placed in the apparatus for a single testing session. A standard SmartCube® protocol runs for a single session (∼45 min). After the session mice are group-housed again and brought back to the colony room. Any abnormal behavior is noted. […] At least 12 mice were used in each treatment group.

α4β2 nAChR = settings: Figure 1, cited from earlier work
α3β4 nAChR = settings: Figure 1, cited from earlier work
mice = settings: ref Mineur et al. [2009]; cited from earlier work
human α3β4*-nAChR = biological target: T1, human α3β4*-nAChR (Homo sapiens, UniProt P30926+P32297); assay: 86Rb+ ion efflux assay, SH-SY5Y cells; type: cell-based; settings: 86Rb+ efflux
T1 construct: SH-SY5Y naturally expresses autonomic α3β4*-nAChRs; endogenous in cells; host or cells: SH-SY5Y human neuroblastoma cells
Text: (§1) Cell lines naturally or heterologously expressing specific, functional, human nAChR subtypes were used. The human clonal cell line TE671/RD naturally expresses human muscle-type α1*-nAChRs, containing α1, β1, γ, and δ subunits, with function detectable using ^86Rb^+ efflux assays. […] These cells heterologously express human nAChR chimeric (α6/3) subunits (wherein the extracellular, N-terminal, ligand-binding domain of the human nAChR α6 subunit replaces that domain in the nAChR α3 subunit) along with human β2 and β3 subunits. […] Cells were passaged once a week by splitting just-confluent cultures 1/300 (TE671/RD), 1/10 (SH-SY5Y), or 1/40 (transfected SH-EP1) in serum-supplemented medium to maintain log-phase growth.
(§2) One newer modification on these techniques involves low temperature incubation before assays to increase the surface expression of high sensitivity (HS) relative to low sensitivity (LS) α4β2 nAChRs and to enhance surface expression of (α6/3)β2β3-nAChRs. […] In brief, this allows us to determine efficacies of test compounds at LS and HS α4β2 nAChRs, respectively, as the ordinate values of the linear regressions at abscissa values of 0% and 100% of sazetidine-A efficacy.
(§3) Results are normalized to responses to a fully efficacious concentration of carbamylcholine (see Materials and Methods for details). […]

[1] = test system: BALB/cJ and C57BL/6J mice; settings: 28 days oral administration; ref Vieyra-Reyes et al. [2008]; cited from earlier work
[2] = test system: male 129SvJ;C57BL/6J F1 hybrid mice; parameters: method as in Turner et al. ([2010]); settings: chronic treatment; ref Turner et al. ([2010]); cited from earlier work
human (α6/3)β2β3-nAChR = biological target: T2, human (α6/3)β2β3-nAChR (Homo sapiens, UniProt P17787+P32297+Q15825); assay: 86Rb+ ion efflux assay, SH-EP1-h(α6/3)β2β3 cells; type: cell-based
T2 construct: expressed in transfected cells; host or cells: SH-EP1 human epithelial cells (SH-EP1-h(α6/3)β2β3)
Text: as §1, §2
Results are normalized to responses to a fully efficacious concentration of carbamylcholine (see Materials and Methods for details). […] The ordinate intercepts of the linear regressions at a sazetidine-A efficacy (abscissa) of 0% represent the efficacies at LS α4β2-nAChRs, while the ordinate intercepts at a sazetidine-A efficacy of 100% represent the efficacies at HS α4β2-nAChRs.

α7 nAChR = settings: ref Rollema et al. [2010]; read-out: Ki α7; cited from earlier work
α4β4 nAChR = settings: ref Rollema et al. [2010]; cited from earlier work
[3] = biological target: T3, LS (low sensitivity) α4β2-nAChRs (Homo sapiens, UniProt P17787+P43681); assay: 86Rb+ ion efflux assay, LS α4β2 efficacy by regression on sazetidine-A efficacy; type: cell-based; settings: relative to carbamylcholine
T3 construct: expressed in transfected cells; host or cells: SH-EP1 human epithelial cells (SH-EP1-hα4β2)
Text: as §1, §2, §3

human α4β2-nAChR = biological target: T4, human α4β2-nAChR (Homo sapiens, UniProt P17787+P43681); assay: 86Rb+ ion efflux assay, SH-EP1-hα4β2 cells; type: cell-based; settings: normalized to a full antagonist
T4 construct: expressed in transfected cells; host or cells: SH-EP1 human epithelial cells (SH-EP1-hα4β2)
Text: as §1, §2, §3

[4] = biological target: T5, HS (high sensitivity) α4β2-nAChRs (Homo sapiens, UniProt P17787+P43681); assay: 86Rb+ ion efflux assay, HS α4β2 efficacy by regression on sazetidine-A efficacy; type: cell-based; settings: relative to carbamylcholine
T5 construct: expressed in transfected cells; host or cells: SH-EP1 human epithelial cells (SH-EP1-hα4β2)
Text: as §1, §2, §3

α4β2*-nAChR = test system: α4β2*-nAChR; parameters: method as in Weber et al. [2013]; settings: estimate at free concentration in brain; ref Weber et al. [2013]; cited from earlier work

T2 sequence (Q15825+P32297 fused with the stated changes): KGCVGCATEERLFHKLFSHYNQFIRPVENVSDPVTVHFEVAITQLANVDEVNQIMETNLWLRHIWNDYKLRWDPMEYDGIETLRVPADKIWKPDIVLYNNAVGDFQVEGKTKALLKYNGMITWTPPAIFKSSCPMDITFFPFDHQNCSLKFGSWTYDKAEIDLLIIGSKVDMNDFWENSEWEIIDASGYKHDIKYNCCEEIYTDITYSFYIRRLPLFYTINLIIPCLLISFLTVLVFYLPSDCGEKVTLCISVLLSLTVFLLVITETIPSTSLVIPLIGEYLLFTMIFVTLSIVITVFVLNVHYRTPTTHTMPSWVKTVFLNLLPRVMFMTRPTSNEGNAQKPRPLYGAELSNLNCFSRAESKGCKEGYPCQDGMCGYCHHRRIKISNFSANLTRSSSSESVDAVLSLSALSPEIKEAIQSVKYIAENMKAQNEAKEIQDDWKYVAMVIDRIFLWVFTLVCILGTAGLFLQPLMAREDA
T2 sequence (P17787 26-502): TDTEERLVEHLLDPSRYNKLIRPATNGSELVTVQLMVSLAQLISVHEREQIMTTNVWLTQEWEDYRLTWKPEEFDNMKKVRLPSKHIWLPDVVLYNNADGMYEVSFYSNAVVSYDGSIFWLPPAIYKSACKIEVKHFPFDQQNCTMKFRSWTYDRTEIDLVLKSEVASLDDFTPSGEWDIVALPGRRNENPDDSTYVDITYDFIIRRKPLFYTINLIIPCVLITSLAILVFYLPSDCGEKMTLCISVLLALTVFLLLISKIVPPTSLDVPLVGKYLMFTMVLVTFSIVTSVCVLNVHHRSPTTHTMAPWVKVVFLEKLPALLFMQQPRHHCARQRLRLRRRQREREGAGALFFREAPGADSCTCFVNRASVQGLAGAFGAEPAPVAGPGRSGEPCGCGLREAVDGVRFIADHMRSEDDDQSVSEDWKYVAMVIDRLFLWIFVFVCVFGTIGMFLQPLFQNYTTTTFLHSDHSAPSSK
T2 sequence (Q05901 25-458 partner limits assumed): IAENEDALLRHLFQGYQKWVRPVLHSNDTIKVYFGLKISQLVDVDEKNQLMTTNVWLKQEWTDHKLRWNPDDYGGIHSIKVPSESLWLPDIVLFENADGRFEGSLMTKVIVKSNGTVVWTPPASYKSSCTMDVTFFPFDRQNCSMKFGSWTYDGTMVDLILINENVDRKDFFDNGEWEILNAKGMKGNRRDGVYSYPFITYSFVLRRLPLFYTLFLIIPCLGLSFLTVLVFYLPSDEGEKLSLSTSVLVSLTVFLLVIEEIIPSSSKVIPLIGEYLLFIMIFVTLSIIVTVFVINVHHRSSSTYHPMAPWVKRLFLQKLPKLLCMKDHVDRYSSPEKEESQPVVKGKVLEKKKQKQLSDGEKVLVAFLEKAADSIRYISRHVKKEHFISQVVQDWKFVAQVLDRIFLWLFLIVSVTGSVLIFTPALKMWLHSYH
T1 sequence (P32297 32-505): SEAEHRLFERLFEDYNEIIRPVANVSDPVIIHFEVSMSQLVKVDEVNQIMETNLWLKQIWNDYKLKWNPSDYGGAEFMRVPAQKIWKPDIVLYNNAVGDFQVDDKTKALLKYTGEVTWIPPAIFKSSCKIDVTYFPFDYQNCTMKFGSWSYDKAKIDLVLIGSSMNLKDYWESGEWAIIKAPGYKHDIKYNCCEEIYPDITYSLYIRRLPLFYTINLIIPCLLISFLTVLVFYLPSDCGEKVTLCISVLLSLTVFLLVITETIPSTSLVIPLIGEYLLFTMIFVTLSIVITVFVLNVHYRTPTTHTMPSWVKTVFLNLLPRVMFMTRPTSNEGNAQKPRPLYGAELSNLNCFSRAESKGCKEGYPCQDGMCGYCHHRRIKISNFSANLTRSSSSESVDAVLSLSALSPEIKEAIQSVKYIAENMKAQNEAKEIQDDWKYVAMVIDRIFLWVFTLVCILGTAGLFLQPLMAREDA
T1 sequence (P30926 22-498): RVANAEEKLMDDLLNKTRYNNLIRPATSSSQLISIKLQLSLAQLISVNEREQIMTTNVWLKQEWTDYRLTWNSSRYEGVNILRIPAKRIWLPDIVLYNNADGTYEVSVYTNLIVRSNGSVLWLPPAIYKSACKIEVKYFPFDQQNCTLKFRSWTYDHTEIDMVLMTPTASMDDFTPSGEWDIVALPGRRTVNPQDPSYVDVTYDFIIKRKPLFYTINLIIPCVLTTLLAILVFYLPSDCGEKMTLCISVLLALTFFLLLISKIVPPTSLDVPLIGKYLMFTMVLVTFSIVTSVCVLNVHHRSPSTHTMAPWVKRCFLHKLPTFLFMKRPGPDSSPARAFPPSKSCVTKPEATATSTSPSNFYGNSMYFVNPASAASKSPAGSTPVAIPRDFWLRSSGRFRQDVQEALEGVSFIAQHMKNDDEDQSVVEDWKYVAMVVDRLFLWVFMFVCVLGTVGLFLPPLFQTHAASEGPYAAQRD
T5 sequence (P43681 29-627 limits assumed): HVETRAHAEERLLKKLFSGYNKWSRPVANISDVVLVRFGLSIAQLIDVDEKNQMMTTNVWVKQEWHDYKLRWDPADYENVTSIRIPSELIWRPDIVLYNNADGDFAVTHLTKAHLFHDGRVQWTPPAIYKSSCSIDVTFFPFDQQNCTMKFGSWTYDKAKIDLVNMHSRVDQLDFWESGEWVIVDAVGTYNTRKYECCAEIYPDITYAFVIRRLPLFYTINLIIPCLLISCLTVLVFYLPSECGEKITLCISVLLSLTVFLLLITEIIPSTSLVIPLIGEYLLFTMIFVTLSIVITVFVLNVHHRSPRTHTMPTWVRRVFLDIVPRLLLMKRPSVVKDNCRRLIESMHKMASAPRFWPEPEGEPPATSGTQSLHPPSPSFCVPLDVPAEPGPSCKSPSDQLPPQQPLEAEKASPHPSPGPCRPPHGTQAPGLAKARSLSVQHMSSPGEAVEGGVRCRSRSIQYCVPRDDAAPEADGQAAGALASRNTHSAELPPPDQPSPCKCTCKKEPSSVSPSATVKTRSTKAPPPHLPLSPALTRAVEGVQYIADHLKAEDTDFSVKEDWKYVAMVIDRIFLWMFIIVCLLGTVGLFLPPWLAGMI
T5 sequence (P17787 26-502): as the sequence (P17787 26-502) above
T3 sequence (P43681 29-627 limits assumed): as the sequence (P43681 29-627 limits assumed) above
T3 sequence (P17787 26-502): as the sequence (P17787 26-502) above
T4 sequence (P43681 29-627 limits assumed): as the sequence (P43681 29-627 limits assumed) above
T4 sequence (P17787 26-502): as the sequence (P17787 26-502) above

O=c1c(-c2ccccn2)ccc2n1CC1CNCC2C1 (stereo not shown) [3-(2-pyridyl)cytisine]
Ki (α4β2* nAChR; ref Mineur et al. ([2009])): 0.91 nM
Ki (α3β4* nAChR): 119 nM
Ki (α7* nAChR; ref Mineur et al. ([2009])): 1100 nM
intrinsic efficacy at both LS and HS receptors (LS and HS α4β2-nAChR): no more than 10%
latency to eat in NSF (C57BL/6J mice): decreased the latency to eat
dose found effective in the NSF test (C57BL/6J mice; lower dose only (0.3 vs. 0.6 mg/kg)): 0.3 mg/kg

O=c1cccc2n1C[C@@H]1CNC[C@H]2C1 [(-)-cytisine]
SmartCube antidepressant (green) component (Male C57 BL6 mice; 1.0 mg/kg, i.p.): potential antidepressive-like behavior; also recorded: most pronounced
SmartCube side effects (Male C57 BL6 mice; 0.5 and 1.0 mg/kg, i.p.): Minimal side effects; also recorded: no obvious side effects
SmartCube behavioral signature (Male C57 BL6 mice; i.p.): robust CNS drug-like signatures
Ki (α7* nAChR; ref Rollema et al. ([2010])): 5890 nM
Ki (α4β2 nAChR; ref Rollema et al. ([2010])): 2 nM
intrinsic efficacy at both LS and HS receptors (LS and HS α4β2-nAChR): no more than 10%
latency to eat in NSF (C57BL/6J mice): decreased the latency to eat
Ki (α3β4 nAChR; ref Rollema et al. ([2010])): 480 nM
dose not tolerated by mice (mice): > 1.5 mg/kg

FC(F)(F)c1ccc2c(c1)[C@H]1CNC[C@@H]2C1 [CP-601927]
Ki (α4β2 nAChR; ref Mineur et al. ([2011])): 1.2 nM
latency to eat in NSF (C57BL/6J mice): increased the latency to eat
Ki (α3β4 nAChR; ref Mineur et al. ([2011])): 102 nM

CN1CCC[C@H]1c1cccnc1 [Nicotine]
Agonism α3β4*-nAChR Efficacy (human α3β4*-nAChR): 90%
behavioral changes in NSF [1]: failed to show significant behavioral changes

OCCCCC#Cc1cncc(OC[C@@H]2CCN2)c1 [Sazetidine-A]
Ki (α4β2* nAChR; ref Xiao et al. ([2006])): 0.9 nM
Ki (α4β2 nAChR; ref Xiao et al. ([2006])): 0.4 nM
time needed to approach food, NIH paradigm [2]: decreased the time needed to approach food
Ki (α3β4 nAChR; ref Xiao et al. ([2006])): 10000 nM

c1cnc2cc3c(cc2n1)[C@@H]1CNC[C@H]3C1 [Varenicline]
EC50 (human (α6/3)β2β3-nAChR; 86Rb+ efflux, read-out: Agonism (α6/3)β2β3-nAChR pEC50 (converted)): 17.8 nM
Agonism (α6/3)β2β3-nAChR Efficacy (human (α6/3)β2β3-nAChR; normalized to a full agonist): 17 ± 0.5
Inactivation (α6/3)β2β3-nAChR Efficacy (human (α6/3)β2β3-nAChR; normalized to a full antagonist): 74 ± 2.6%
SmartCube antidepressant effects (Male C57 BL6 mice; 1 mg/kg): weak antidepressant effects
SmartCube side effects (Male C57 BL6 mice; 1.0 mg/kg, i.p.): Minimal side effects
SmartCube side effect component, probability (Male C57 BL6 mice; 3.0 mg/kg, i.p.): about 30%
SmartCube behavioral signature (Male C57 BL6 mice; i.p.): robust CNS drug-like signatures
Ki (α7 nAChR): 125 nM
Ki (α4β4 nAChR): 110 nM
Agonism α4β2-nAChR LS Efficacy [3]: 34 ± 2.8%
Inactivation α4β2-nAChR Efficacy (human α4β2-nAChR): 79 ± 3.3%
latency to eat in NSF (C57BL/6J mice): did not show any effect
time needed to approach food, NIH paradigm [2]: no effect
Agonism α3β4*-nAChR Efficacy (human α3β4*-nAChR): 110%
Agonism α4β2-nAChR HS Efficacy [4]: 105 ± 4.4%

CNC1(C)C2CCC(C2)C1(C)C (stereo not shown) [mecamylamine]
block of α4β2*-nAChR function (α4β2*-nAChR): ~20%
